System: NOMO1
Experiment: cell viability relative to DMSO control; higher = less cytotoxic
Conditions: 48 h
Summary of the method: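 Viability is a per-plate percentage relative to DMSO wells, with cell-free wells as background. CellTiter-Glo One luminescence was read after 48 h at 37°C on 1536-well plates (5 μl) of NOMO1 or SEM (500 cells/well) or P12-Ichikawa (1000 cells/well) leukemia cells. The cells had been adapted for at least four passages in each medium and pin-dosed with library compounds in DMSO from 47 μM to 0.79 nM in 11 threefold steps.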

[1] = HPLM + 10% dialyzed FBS, 0.000781 µM
[2] = HPLM + 10% dialyzed FBS, 0.00234 µM
[3] = HPLM + 10% dialyzed FBS, 0.00702 µM
[4] = HPLM + 10% dialyzed FBS, 0.0211 µM
[5] = HPLM + 10% dialyzed FBS, 0.0632 µM
[6] = HPLM + 10% dialyzed FBS, 0.19 µM
[7] = HPLM + 10% dialyzed FBS, 0.569 µM
[8] = HPLM + 10% dialyzed FBS, 1.71 µM
[9] = HPLM + 10% dialyzed FBS, 5.12 µM
[10] = HPLM + 10% dialyzed FBS, 15.4 µM
[11] = HPLM + 10% dialyzed FBS, 46.1 µM
[12] = RPMI 5 mM glucose + 10% FBS, 0.000781 µM
[13] = RPMI 5 mM glucose + 10% FBS, 0.00234 µM
[14] = RPMI 5 mM glucose + 10% FBS, 0.00702 µM
[15] = RPMI 5 mM glucose + 10% FBS, 0.0211 µM
[16] = RPMI 5 mM glucose + 10% FBS, 0.0632 µM
[17] = RPMI 5 mM glucose + 10% FBS, 0.19 µM
[18] = RPMI 5 mM glucose + 10% FBS, 0.569 µM
[19] = RPMI 5 mM glucose + 10% FBS, 1.71 µM
[20] = RPMI 5 mM glucose + 10% FBS, 5.12 µM
[21] = RPMI 5 mM glucose + 10% FBS, 15.4 µM
[22] = RPMI 5 mM glucose + 10% FBS, 46.1 µM
[23] = RPMI 5 mM glucose + 10% dialyzed FBS, 0.000781 µM
[24] = RPMI 5 mM glucose + 10% dialyzed FBS, 0.00234 µM
[25] = RPMI 5 mM glucose + 10% dialyzed FBS, 0.00702 µM
[26] = RPMI 5 mM glucose + 10% dialyzed FBS, 0.0211 µM
[27] = RPMI 5 mM glucose + 10% dialyzed FBS, 0.0632 µM
[28] = RPMI 5 mM glucose + 10% dialyzed FBS, 0.19 µM
[29] = RPMI 5 mM glucose + 10% dialyzed FBS, 0.569 µM
[30] = RPMI 5 mM glucose + 10% dialyzed FBS, 1.71 µM
[31] = RPMI 5 mM glucose + 10% dialyzed FBS, 5.12 µM
[32] = RPMI 5 mM glucose + 10% dialyzed FBS, 15.4 µM
[33] = RPMI 5 mM glucose + 10% dialyzed FBS, 46.1 µM

Structure (SMILES)	cell viability [1] [%]	cell viability [2] [%]	cell viability [3] [%]	cell viability [4] [%]	cell viability [5] [%]	cell viability [6] [%]	cell viability [7] [%]	cell viability [8] [%]	cell viability [9] [%]	cell viability [10] [%]	cell viability [11] [%]	cell viability [12] [%]	cell viability [13] [%]	cell viability [14] [%]	cell viability [15] [%]	cell viability [16] [%]	cell viability [17] [%]	cell viability [18] [%]	cell viability [19] [%]	cell viability [20] [%]	cell viability [21] [%]	cell viability [22] [%]	cell viability [23] [%]	cell viability [24] [%]	cell viability [25] [%]	cell viability [26] [%]	cell viability [27] [%]	cell viability [28] [%]	cell viability [29] [%]	cell viability [30] [%]	cell viability [31] [%]	cell viability [32] [%]	cell viability [33] [%]
CN(C)CCOc1ccc(-c2nc(-c3ccncc3)c(-c3ccc4c(c3)CC/C4=N\O)[nH]2)cc1	98.1	113	102	110	127	129	129	107	95.3	95.2	62.9	97	101	95	104	118	112	97.2	95.5	104	86.9	81.4	108	105	121	106	119	121	115	106	85.5	85.4	53.8
CCN(C(=O)C/1=C(O)/C2=C(C=CC=C2Cl)N(C)C1=O)C3=CC=CC=C3	95	106	97.6	99.3	87.4	84	96.6	34.9	12.5	3.29	3.67	80.5	88.8	93.4	93.8	96	81	90.6	43.7	15.8	2.47	2.24	96.2	89	94	97.2	103	83.8	91.9	53.5	22	2.48	2.14
CCOC(=O)c1cncn1[C@H](C)c1ccccc1	–	–	–	–	–	–	–	–	–	–	–	118	116	135	128	112	115	121	127	117	119	125	–	–	–	–	–	–	–	–	–	–	–
CC1=C(CC(=O)O)c2cc(F)ccc2/C1=C\c1ccc([S+](C)[O-])cc1 (stereo not drawn)	121	122	106	123	125	107	140	99.6	103	101	113	125	118	105	132	115	110	112	113	114	110	112	128	119	119	123	139	139	119	109	104	107	99.6
CC[C@@]1(O)C(=O)OCC/2=C1/C=C3\N(CC4=CC5=CC(=CC=C5N=C34)O)C2=O	–	–	–	–	–	–	–	–	–	–	–	116	123	133	107	113	33.3	23.8	22.6	18.6	22.8	13.4	111	124	117	117	121	40.4	23.8	25.8	24.5	26.4	9.6
CO/C1=C/C(C)=C\[C@@H](C)[C@@H](O)[C@@H](C)C/C(C)=C\C=C/[C@H](OC)[C@@H]([C@@H](C)[C@@H](O)[C@H](C)[C@@]2(O)C[C@@H](O)[C@H](C)[C@@H](C(C)C)O2)OC1=O	79.5	97.1	91.8	90.6	58.8	12.1	12.7	11.1	12.6	10.5	9.72	105	95.9	107	82.3	88.7	12.5	9.12	7.87	9.62	8.77	7.13	99.8	103	104	83	73.7	8.37	8.28	8.09	7.93	6.37	6.62
COC1=C2C[C@@H](C)C[C@H](OC)[C@H](O)[C@@H](C)/C=C(\C)[C@H](OC(N)=O)[C@@H](OC)/C=C/C=C(\C)C(=O)NC(=CC1=O)C2=O	–	–	–	–	–	–	–	–	–	–	–	108	119	104	119	109	111	109	110	101	80.4	4.86	112	111	123	113	115	114	113	121	123	81.3	5.45
COCCOc1nc(-c2ccc(Cl)c(Cl)c2)n(-c2ccc(NC(=O)CCl)cc2)n1	92.5	113	110	114	113	115	96.6	110	87.2	85	107	78.3	86.9	84.4	82.7	85	87.6	80.7	84.9	91.3	92.6	86.7	82.7	92.1	93.5	83.7	97.4	87.5	96.9	93.9	86.4	79.7	104
CC/1=C(/C(CC(=O)N1)C2=CC=C(C=C2)C(F)(F)F)C(=O)NC3=C(F)C=C4[NH]N=CC4=C3 (stereo not drawn)	94.2	94.5	103	108	104	100	105	98.6	96.1	33.6	11.5	92	92.7	85.7	81.2	89.6	86	86.9	82.4	84.2	66.7	23.9	91.7	89.1	104	96.1	95	84.7	97.5	95.3	92.1	58	28

Reference: the supplement of paper PMC11451515
